{"source": "patent US20070244056A1", "about": "(priority 2004, published 2007)", "key": {"[1]": {"test_system": "Transgenic mice overexpressing human Cu/Zn-SOD G93A mutations", "assay": "Experimental model for amyotrophic lateral sclerosis (SOD1 G93A transgenic mice)", "assay_type": "in vivo", "details": "glatiramer acetate at both dosages; riluzole 30 mg/kg per day; during the course of treatment", "procedure": "Transgenic mice overexpressing human Cu/Zn-SOD G93A mutations ((B6SJL-TgN (SOD1-G93A) 1 Gur) and non-transgenic B6/SJL mice are purchased from Jackson Laboratories (Bar Harbor, Me., USA). The second generation of G1H mice are used.\nA group of 15 mice serve as controls.\nThe drugs are administered in drinking water starting at 60 days of age.\nThe clinical condition of the mice is monitored daily starting at 40 days. The onset of clinical signs is scored by examining the mice for tremors and/or shaking of the limbs, the position of one or both hind limbs (hanging rather than splaying out) when the mice are suspended in the air by their tail. The age of clinical onset was determined by the age (days) at which loss of splay or tremors of hind limbs is observed. The loss of righting reflex determines the end stage of the disease. The mice are sacrificed if they could not right themselves within 30 seconds when placed on either side on a flat surface.\nMice are observed daily (including weekends) and weighed weekly. Motor performance is assessed from 40 days of age using the rotarod apparatus to measure the night activity of the mice from 8 p.m.-8 a.m.\nMice were perfused transcardially with 4% paraformaldehyde/0.9% NaCl solution, brains and whole spinal cord were dissected out, frozen in liquid nitrogen and cut in transverse sections of 20 μm on a sliding microtome. […]"}, "[2]": {"test_system": "human patients afflicted with an unspecified form of multiple sclerosis", "details": "administered alone; data of WO 00/74676; cited from earlier work"}, "[3]": {"test_system": "multiple sclerosis (MS)", "details": "daily subcutaneous injections, 20 mg/injection; cited from earlier work"}}}
{"compound": "Nc1nc2ccc(OC(F)(F)F)cc2s1", "note": "[riluzole, 2-amino-6-trifluoromethoxy benzothiazole]", "values": [{"measurement": "running wheel activity (motor activity)", "setting": "[1]", "result": "more active during the course of treatment and maintain their motor activity longer than controls"}, {"measurement": "EDSS score", "setting": "[2]", "result": "No effect"}, {"measurement": "accumulation of hypointense lesions", "setting": "[2]", "result": "showed a trend toward reduction"}]}
{"compound": "L-glutamic acid polymer with L-alanine, L-lysine and L-tyrosine, acetate (salt) [glatiramer acetate]", "values": [{"measurement": "appearance of \"black holes\"", "setting": "[3]", "result": "reduce"}, {"measurement": "appearance of new lesions by magnetic resonance imaging (MRI)", "setting": "[3]", "result": "reduce"}, {"measurement": "progression of disability", "setting": "[3]", "result": "reduce"}, {"measurement": "relapse rates", "setting": "[3]", "result": "reduce"}, {"measurement": "running wheel activity (motor activity)", "setting": "[1]", "result": "more active during the course of treatment and maintain their motor activity longer than controls"}]}
